According to ChEMBL document CHEMBL1145122, “Structure-based design of novel guanidine/benzamidine mimics: potent and orally bioavailable factor Xa inhibitors as novel anticoagulants” (J Med Chem, 2003):

Tests used:
physchem [1] = experiment: physchem
Prothrombin = Prothrombin (Homo sapiens, UniProt P00734); experiment: Inhibitory activity against Thrombin
Trypsin = Trypsin (Homo sapiens, UniProt P07477+P07478+P35030); experiment: Inhibition of Trypsin; type: protein assay
Coagulation factor X = Coagulation factor X (Homo sapiens, UniProt P00742); experiment: Inhibitory activity against Coagulation factor X (FXa)
physchem [2] = settings: octanol/water
in vivo [3] = settings: dog, po
in vivo [4] = settings: dog
in vivo [5] = settings: dog, iv
in vivo [6] = settings: dog; remark: listed apart in the source
in vivo [7] = settings: dog, po; remark: listed apart in the source
[8] = tested on: plasma protein binding (Homo sapiens); experiment: Percentage binding to human plasma proteins
Oryctolagus cuniculus [9] = species on record: Oryctolagus cuniculus; experiment: Concentration required for inhibition of thrombus formation in rabbit arterial-venous shunt antithrombosis model; type: functional, organism-based
in vivo [10] = settings: dog, po; remark: listed apart in the source
Oryctolagus cuniculus [11] = species on record: Oryctolagus cuniculus; experiment: Dose required for inhibition of thrombus formation in rabbit arterial-venous shunt antithrombosis model; type: functional
physchem [12] = settings: octanol/water; remark: listed apart in the source

Coagulation factor X, sequence (P00742 41-179 limits assumed): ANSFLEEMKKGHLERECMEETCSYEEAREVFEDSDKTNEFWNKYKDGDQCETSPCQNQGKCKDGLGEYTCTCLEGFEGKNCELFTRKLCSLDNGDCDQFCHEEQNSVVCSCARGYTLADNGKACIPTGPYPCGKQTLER
Coagulation factor X, sequence (P00742 235-488 limits assumed): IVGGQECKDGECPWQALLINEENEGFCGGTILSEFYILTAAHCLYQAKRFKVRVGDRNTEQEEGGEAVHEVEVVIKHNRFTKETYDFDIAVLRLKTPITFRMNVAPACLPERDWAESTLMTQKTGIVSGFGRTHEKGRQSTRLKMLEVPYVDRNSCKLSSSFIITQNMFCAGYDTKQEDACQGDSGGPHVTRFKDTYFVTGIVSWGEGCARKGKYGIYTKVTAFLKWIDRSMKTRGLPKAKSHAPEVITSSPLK

| Structure (SMILES) | pKa (physchem [1]) | Ki (Prothrombin) [nM] | Ki (Trypsin) [nM] | Ki (Coagulation factor X) [nM] | further results |
| --- | --- | --- | --- | --- | --- |
| Cc1cc(C(=O)Nc2ccc(-c3ccccc3S(N)(=O)=O)cc2)n(-c2ccc3nc(N)nc(N)c3c2)n1 | 8.1 | > 21000 | > 1600 | 16 | – |
| Cc1cc(C(=O)Nc2ccc(-c3ccccc3S(N)(=O)=O)cc2)n(-c2ccc3onc(N)c3c2)n1 | < 2.3 | > 21000 | > 1600 | 1.4 | logP (physchem [2]): 2.3; bioavailability (in vivo [3]): 26%; clearance (in vivo [4]): 5 mL/min/kg; half-life (in vivo [5]): 2.8 h; Vd (in vivo [6]): 0.7 L/kg; half-life (in vivo [7]): 3.2 h |
| Cc1cc(C(=O)Nc2ccc(-c3ccccc3S(N)(=O)=O)cc2)n(-c2cccc(S(N)(=O)=O)c2)n1 | – | > 21000 | – | 5000 | – |
| Cc1cc(C(=O)Nc2ccc(-c3ccccc3S(N)(=O)=O)cc2)n(-c2ccc3[nH]nc(N)c3c2)n1 | – | > 21000 | – | 29 | – |
| Cc1cc(C(=O)Nc2ccc(-c3ccccc3S(N)(=O)=O)cc2)n(-c2ccc(N)nc2)n1 | 7 | > 2100 | – | 1300 | – |
| Cc1cc(C(=O)Nc2ccc(-c3ccccc3S(N)(=O)=O)cc2)n(-c2cccc(C(=N)NO)c2)n1 | 7 | > 21000 | > 1600 | 19 | – |
| Cc1cc(C(=O)Nc2ccc(-c3ccccc3S(N)(=O)=O)cc2)n(-c2ccccc2)n1 | – | > 21000 | > 1600 | 198 | – |
| Cc1cc(C(=O)Nc2ccc(-c3ccccc3S(N)(=O)=O)cc2)n(-c2ccc3ccncc3c2)n1 | 5.4 | > 21000 | > 1600 | 370 | – |
| Cc1cc(C(=O)Nc2ccc(-c3ccccc3S(N)(=O)=O)cc2)n(-c2cccc(N)c2)n1 | 4.7 | > 21000 | > 1600 | 63 | – |
| Cc1cc(C(=O)Nc2ccc(-c3ccccc3S(N)(=O)=O)cc2)n(C2CCCNC2)n1 (stereo unspecified) | 10 | > 21000 | – | – | – |
| Cc1cc(C(=O)Nc2ccc(-c3ccccc3S(N)(=O)=O)cc2)n(-c2ccc3ncnc(N)c3c2)n1 | 5.7 | > 21000 | > 1600 | 29 | – |
| Cc1cc(C(=O)Nc2ccc(-c3ccccc3S(N)(=O)=O)cc2)n(-c2ccccc2N)n1 | 4.7 | > 21000 | – | 600 | – |
| Cc1cc(C(=O)Nc2ccc(-c3ccccc3S(N)(=O)=O)cc2)n(-c2cccc(S(C)=N)c2)n1 (stereo unspecified) | – | > 21000 | – | 2700 | – |
| Cc1cc(C(=O)Nc2ccc(-c3ccccc3S(N)(=O)=O)cc2)n(-c2cccc(Cl)c2)n1 | – | > 21000 | > 1600 | 37 | – |
| Cc1cc(C(=O)Nc2ccc(-c3ccccc3S(N)(=O)=O)cc2)n(-c2cccc(CN)c2)n1 | – | > 21000 | – | – | – |
| Cc1cc(C(=O)Nc2ccc(-c3ccccc3S(N)(=O)=O)cc2)n(CCCCN)n1 | 10 | > 21000 | – | 12000 | – |
| Cc1cc(C(=O)Nc2ccc(-c3ccccc3S(N)(=O)=O)cc2)n(-c2ccc3ccnc(N)c3c2)n1 | 6.7 | 6500 | 2600 | 0.33 | Binding [8]: 89%; IC50 (Oryctolagus cuniculus [9]): 690 nM; clearance (in vivo [4]): 5.5 mL/min/kg; half-life (in vivo [5]): 3.4 h; bioavailability (in vivo [10]): 13%; Vd (in vivo [6]): 1.2 L/kg; ID50 (Oryctolagus cuniculus [11]): 1.2 µM/h/kg; half-life (in vivo [7]): 4.4 h; logP (physchem [12]): 2.6 |
| COc1ccc(-n2nc(C)cc2C(=O)Nc2ccc(-c3ccccc3S(N)(=O)=O)cc2)cc1 | < 0 | > 21000 | > 1600 | 11 | bioavailability (in vivo [3]): 48%; clearance (in vivo [4]): 1.5 mL/min/kg; half-life (in vivo [5]): 4.5 h; Vd (in vivo [6]): 0.52 L/kg; half-life (in vivo [7]): 4.5 h; logP (physchem [12]): 2.9 |
| Cc1cc(C(=O)Nc2ccc(-c3ccccc3S(N)(=O)=O)cc2)n(-c2ccc3c(N)[nH]nc3c2)n1 | – | > 21000 | > 1600 | 2800 | – |
| Cc1cc(C(=O)Nc2ccc(-c3ccccc3S(N)(=O)=O)cc2)n(-c2cccc(C(N)=O)c2)n1 | < 0 | > 21000 | > 1600 | – | bioavailability (in vivo [3]): 46%; clearance (in vivo [4]): 4.67 mL/min/kg; half-life (in vivo [5]): 3.1 h; half-life (in vivo [7]): 3.9 h; logP (physchem [12]): 2.1 |
| Cc1cc(C(=O)Nc2ccc(-c3ccccc3S(N)(=O)=O)cc2)n(-c2cccc(B(O)O)c2)n1 | – | > 21000 | > 1600 | 61 | – |
| Cc1cc(C(=O)Nc2ccc(-c3ccccc3S(N)(=O)=O)cc2)n(-c2ccc(N)cc2)n1 | 4.7 | > 21000 | – | 3000 | – |
| Cc1cc(C(=O)Nc2ccc(-c3ccccc3S(N)(=O)=O)cc2)n(-c2cccc(C#N)c2)n1 | – | > 21000 | – | 310 | – |
